System: cultured PBMCs of the allergic donors
Assay: ELISPOT of IL-5 or IFNg production by cultured PBMCs of TG allergic donors in response to peptide
Format: cell-based, human
Conditions: for No of PG+ & th+ peptides per NTGA / No of PP & Th+ peptides per NTGA: Table 6; for No of PG+ & th+ peptides per NTGA: PG+ peptides recognized by T cells of grass allergic donors (n=20); for No of PP & Th+ peptides per NTGA: PP peptides recognized by T cells of grass allergic donors (n=20); for # Th+: Table 7, peptides per NTGA recognized by T cells of grass allergic donors (n=20); for NTGA's containing at least one T cell epitope, Th+ (Col 2): NTGA number given = criterion met, TG allergic donors n=20
From the text: Table 1 indicates for each of the 397 PG+ peptides in which non-grass pollen species a matching peptide with either less than 3, less than 2 or zero mismatches are found. The number of TG grass allergic donors (n=20) with an in vitro T cell response to the TG peptide sequence is also shown.
A set of 93 proteins from Timothy grass (TG) pollen and the assembly of 822 peptides (15 mers) predicted to promiscuously bind HLA class II molecules shown in Table 9 and the immune reactivity in allergic donors have been reported in PCT application WO 2013/119863. […] Immune reactivity was determined by the production of IL-5 or IFNg from cultured PBMCs of the allergic donors in response to stimulation with a peptide and IL-5 and IFNg were measured by ELISPOT as described in Oseroff C et al, 2010.
In short, T cell immune reactivity was determined using PBMCs isolated from study participants and stored in liquid nitrogen until further use. For experimental testing, PBMCs were thawed and expanded in vitro with TG pollen extract (50 μg/mL) or the peptide pool ([…]). The TG extract and peptide pools had each been previously titrated to determine optimal stimulation concentrations.
Cytokine production by cultured PBMCs in response to antigen stimulation was measured by ELISPOT. Cells (1×10^5 cells/well) were plated and incubated with peptide (10 μg/mL), the peptide pool (5 μg/mL), or the TG extract (50 μg/mL). Phytohaemagglutinin (10 μg/mL) and medium alone were used as positive and negative controls, respectively. Samples were considered to produce a cytokine if 100 spot-forming cells (SFCs)/10^6 PBMCs were detected, with P .05 and a stimulation index of 2 or more. Criteria for individual peptides were the same except that a minimum of 20 SFCs were required for a sample to be counted as positive.
Table 3 lists the 397 PG+ peptides and indicates for each non-grass pollen species whether a matching peptide with either less than 3, less than 2 or zero mismatches could be detected. The immune reactivity of the TG peptide was assessed as the number of TG grass allergic donors (n=20) having in vitro T cell response against the TG peptide.

Substance: 31 (QGFIWGINSFDQWGV) [compound 31]
- No of PG+ & th+ peptides per NTGA: 0
- No of PP & Th+ peptides per NTGA: 0
- # Th+: 0

Substance: 58 (GKLDLLLSQGKEYVF) [compound 58]
- No of PG+ & th+ peptides per NTGA: 0
- No of PP & Th+ peptides per NTGA: 0
- # Th+: 0

Substance: 40 (GIWAVLAWLSIIAYK) [compound 40]
- NTGA's containing at least one T cell epitope, Th+ (Col 2): 40
- No of PG+ & th+ peptides per NTGA: 2
- No of PP & Th+ peptides per NTGA: 2
- # Th+: 0

Substance: 37 (SDSVAIIAANAVQSI) [compound 37]
- # Th+: 0

Substance: 36 (KRFFVTPSDSVAIIA) [compound 36]
- No of PG+ & th+ peptides per NTGA: 0
- No of PP & Th+ peptides per NTGA: 0
- # Th+: 0

Substance: 83 (LNTEEFIDAVAAELQ) [compound 83]
- NTGA's containing at least one T cell epitope, Th+ (Col 2): 83
- No of PG+ & th+ peptides per NTGA: 11
- No of PP & Th+ peptides per NTGA: 4
- # Th+: 0

Substance: 72 (VQSDLYTLVDGFVTR) [compound 72]
- NTGA's containing at least one T cell epitope, Th+ (Col 2): 72
- No of PG+ & th+ peptides per NTGA: 2
- No of PP & Th+ peptides per NTGA: 1
- # Th+: 0

Substance: 5 (KLAMQEFMILPTGAS) [compound 5]
- No of PG+ & th+ peptides per NTGA: 0
- No of PP & Th+ peptides per NTGA: 0
- # Th+: 0

Substance: 18 (ENRSVLHVALRAPRD) [compound 18]
- No of PG+ & th+ peptides per NTGA: 0
- No of PP & Th+ peptides per NTGA: 0
- # Th+: 0

Substance: 85 (RVLSCDFKPTRPFRI) [compound 85]
- # Th+: 0

Substance: 48 (ILSYADFYQLAGVVA) [compound 48]
- No of PG+ & th+ peptides per NTGA: 0
- No of PP & Th+ peptides per NTGA: 0
- # Th+: 0

Substance: 81 (NSIASIFAWTRGLAH) [compound 81]
- # Th+: 0

Substance: 75 (GTIRNIINGTVFREP) [compound 75]
- # Th+: 0

Substance: 17 (VDNVNSIIGPALIGK) [compound 17]
- # Th+: 0

Substance: 33 (DDGKVYLEMSYYFEI) [compound 33]
- No of PG+ & th+ peptides per NTGA: 0
- No of PP & Th+ peptides per NTGA: 0
- # Th+: 0

Substance: 69 (GINVPRSRFLPVKAT) [compound 69]
- No of PG+ & th+ peptides per NTGA: 0
- No of PP & Th+ peptides per NTGA: 0
- # Th+: 0

Substance: 92 (SVGFVETLENDLAQL) [compound 92]
- # Th+: 0

Substance: 80 (VQSDFLAQGFGSLGL) [compound 80]
- # Th+: 0

Substance: 12 (RAAVPSGASTGVYEA) [compound 12]
- # Th+: 0

Substance: 21 (VVSKTFTTAETMLNA) [compound 21]
- No of PG+ & th+ peptides per NTGA: 0
- No of PP & Th+ peptides per NTGA: 0
- # Th+: 0

Substance: 82 (DNARLLDFTQKLEDA) [compound 82]
- # Th+: 0

Substance: 74 (GRFKSIPSIVELDSL) [compound 74]
- # Th+: 0

From patent US20160287696A1, “PAN POLLEN IMMUNOGENS AND METHODS AND USES FOR IMMUNE RESPONSE MODULATION” (LA JOLLA INSTITUTE FOR ALLERGY AND IMMUNOLOGY, priority 2013, published 2016)
